Measured values taken from patent publication US20080194585A1, “Fungicidal Pyrazine Derivatives” (priority 2005, published 2008).
Marks after values point to notes of the source that are not given here.

What was measured:
[1] = test system: Septoria nodorum; test: Test H: wheat glum blotch, preventive spray on wheat seedlings
Method: (the causal agent of wheat glum blotch) and incubated in a saturated atmosphere at 20° C. for 48 h, and then moved to a growth chamber at 22° C. for 5 days, after which disease ratings were made.

[2] = test system: Puccinia recondita f. sp. tritici; test: Test K: wheat leaf rust, preventive spray on wheat seedlings
[3] = test system: Erysiphe graminis f. sp. tritici; test: Test L: wheat powdery mildew, preventive spray on wheat seedlings
[4] = test system: Sclerotinia sclerotiorum; test: Test C: cucumber white mold, preventive spray on cucumber seedlings
[5] = test system: fusarium graminearium; test: Test I: wheat head scab, preventive spray on wheat seedlings; conditions: 200 ppm
Method: (the causal agent of wheat head scab) and incubated in a saturated atmosphere at 20° C. for 72 h, and then moved to a growth chamber at 22° C. for 5 days, after which disease ratings were made.

[6] = test system: Botrytis cinerea; test: Test E: tomato botrytis, preventive spray on tomato seedlings
[7] = test system: Phytophthora infestans; test: whole plant or invertebrate; assay type: in vivo; conditions: 200 ppm
[8] = test system: Rhizoctonia oryzae; test: Test G: turf brown patch, preventive spray on creeping bent grass seedlings
Method: (the causal agent of turf brown patch) and incubated in a saturated atmosphere at 27° C. for 24 h, and then moved to a growth chamber at 27° C. for 5 days, after which disease ratings were made.

[9] = test system: Pythium aphanidermatum; test: Test A: bluegrass pythium blight, preventive spray on bluegrass seedlings; conditions: 200 ppm
[10] = test system: Septoria tritici; test: Test J: wheat leaf blotch, preventive spray on wheat seedlings; assay type: in vivo
Text: A dash (-) indicates no test results.

[11] = test system: Plasmopara viticola; test: Test D: grape downy mildew, spray after inoculation of grape seedlings; assay type: in vivo; conditions: 200 ppm
Text: Upon removal, disease ratings were made. […] A dash (-) indicates no test results.

[12] = test system: Colletotrichum orbiculare; test: Test B: cucumber Colletotrichum anthracnose, preventive spray on cucumber seedlings

CCC(C)Cn1c(-c2c(F)cccc2F)c(Cl)nc(-n2cnc(Cl)c2Cl)c1=O (stereo not drawn) [compound 68]
Test H disease control rating ([1]; 40 ppm (*)): 0* %
Test K disease control rating ([2]; 40 ppm (*)): 0* %
Test L disease control rating ([3]; 40 ppm (*)): 0* %
Test C disease control rating ([4]; 200 ppm): 0%
Test I disease control rating [5]: 0%
Test E disease control rating ([6]; 40 ppm (*)): 0* %
Test F disease control rating [7]: 0%
Test G disease control rating ([8]; 40 ppm (*)): 0* %
Test A disease control rating [9]: 0%
Test J disease control rating ([10]; 40 ppm (*)): 26* %
Test D disease control rating [11]: 0%
Test B disease control rating ([12]; 40 ppm (*)): 0* %

CCc1nccn1-c1nc(Cl)c(-c2c(F)cccc2F)n(CC(C)CC)c1=O (stereo not drawn) [compound 70]
Test H disease control rating ([1]; 40 ppm (*)): 0* %
Test K disease control rating ([2]; 40 ppm (*)): 55* %
Test L disease control rating ([3]; 40 ppm (*)): 0* %
Test C disease control rating ([4]; 200 ppm): 0%
Test I disease control rating [5]: 0%
Test E disease control rating ([6]; 40 ppm (*)): 0* %
Test F disease control rating [7]: 0%
Test G disease control rating ([8]; 40 ppm (*)): 0* %
Test A disease control rating [9]: 0%
Test J disease control rating ([10]; 40 ppm (*)): 83* %
Test D disease control rating [11]: 0%
Test B disease control rating ([12]; 40 ppm (*)): 0* %

CCCc1nccn1-c1nc(Cl)c(-c2c(F)cccc2F)n(CC(C)CC)c1=O (stereo not drawn) [compound 71]
Test H disease control rating ([1]; 40 ppm (*)): 0* %
Test K disease control rating ([2]; 40 ppm (*)): 68* %
Test L disease control rating ([3]; 40 ppm (*)): 0* %
Test C disease control rating ([4]; 200 ppm): 0%
Test I disease control rating [5]: 0%
Test E disease control rating ([6]; 40 ppm (*)): 0* %
Test F disease control rating [7]: 0%
Test G disease control rating ([8]; 40 ppm (*)): 30* %
Test A disease control rating [9]: 0%
Test J disease control rating ([10]; 40 ppm (*)): 64* %
Test D disease control rating [11]: 0%
Test B disease control rating ([12]; 40 ppm (*)): 0* %

CCC(C)Cn1c(-c2c(F)cccc2F)c(Cl)nc(-n2ccnc2C(C)C)c1=O (stereo not drawn) [compound 72]
Test H disease control rating ([1]; 40 ppm (*)): 0* %
Test K disease control rating ([2]; 40 ppm (*)): 61* %
Test L disease control rating ([3]; 40 ppm (*)): 53* %
Test C disease control rating ([4]; 200 ppm): 0%
Test I disease control rating [5]: 0%
Test E disease control rating ([6]; 40 ppm (*)): 0* %
Test F disease control rating [7]: 0%
Test G disease control rating ([8]; 40 ppm (*)): 58* %
Test A disease control rating [9]: 0%
Test J disease control rating ([10]; 40 ppm (*)): 74* %
Test D disease control rating [11]: 0%
Test B disease control rating ([12]; 40 ppm (*)): 0* %

CC(C)Cn1c(-c2ccc(C(C)(C)C)cc2)c(Cl)nc(-n2cccn2)c1=O [compound 74]
Test H disease control rating ([1]; 40 ppm (*)): 0* %
Test K disease control rating ([2]; 40 ppm (*)): 80* %
Test L disease control rating ([3]; 40 ppm (*)): 75* %
Test C disease control rating ([4]; 200 ppm): 0%
Test I disease control rating [5]: 0%
Test E disease control rating ([6]; 40 ppm (*)): 0* %
Test F disease control rating [7]: 0%
Test G disease control rating ([8]; 40 ppm (*)): 0* %
Test A disease control rating [9]: 0%
Test J disease control rating ([10]; 40 ppm (*)): 26* %
Test D disease control rating [11]: 0%
Test B disease control rating ([12]; 40 ppm (*)): 0* %

CC(C)Cn1c(-c2ccc(C(C)(C)C)cc2)c(Cl)nc(-n2cncn2)c1=O [compound 75]
Test H disease control rating ([1]; 40 ppm (*)): 0* %
Test K disease control rating ([2]; 40 ppm (*)): 0* %
Test L disease control rating ([3]; 40 ppm (*)): 0* %
Test C disease control rating ([4]; 200 ppm): 0%
Test I disease control rating [5]: 0%
Test E disease control rating ([6]; 40 ppm (*)): 0* %
Test F disease control rating [7]: 0%
Test G disease control rating ([8]; 40 ppm (*)): 0* %
Test A disease control rating [9]: 0%
Test J disease control rating ([10]; 40 ppm (*)): 7* %
Test D disease control rating [11]: 0%
Test B disease control rating ([12]; 40 ppm (*)): 0* %

CC(C)Cn1c(-c2ccc(C(F)(F)F)cc2)c(Cl)nc(-n2cncn2)c1=O [compound 76]
Test H disease control rating ([1]; 40 ppm (*)): 0* %
Test K disease control rating ([2]; 40 ppm (*)): 0* %
Test L disease control rating ([3]; 40 ppm (*)): 0* %
Test C disease control rating ([4]; 200 ppm): 0%
Test I disease control rating [5]: 0%
Test E disease control rating ([6]; 40 ppm (*)): 0* %
Test F disease control rating [7]: 21%
Test G disease control rating ([8]; 40 ppm (*)): 0* %
Test A disease control rating [9]: 0%
Test J disease control rating ([10]; 40 ppm (*)): 0* %
Test D disease control rating [11]: 0%
Test B disease control rating ([12]; 40 ppm (*)): 0* %

CC(C)Cn1c(-c2ccc(OC(F)(F)F)cc2)c(Cl)nc(-n2cncn2)c1=O [compound 77]
Test H disease control rating ([1]; 40 ppm (*)): 0* %
Test K disease control rating ([2]; 40 ppm (*)): 0* %
Test L disease control rating ([3]; 40 ppm (*)): 0* %
Test C disease control rating ([4]; 200 ppm): 0%
Test I disease control rating [5]: 0%
Test E disease control rating ([6]; 40 ppm (*)): 0* %
Test F disease control rating [7]: 0%
Test G disease control rating ([8]; 40 ppm (*)): 0* %
Test A disease control rating [9]: 0%
Test J disease control rating ([10]; 40 ppm (*)): 0* %
Test D disease control rating [11]: 0%
Test B disease control rating ([12]; 40 ppm (*)): 0* %

COC(=O)C(C)=NNc1nc(Cl)c(-c2c(F)cccc2F)n(CC(C)C)c1=O [compound 78]
Test H disease control rating ([1]; 200 ppm): 0%
Test K disease control rating ([2]; 200 ppm): 0%
Test L disease control rating ([3]; 200 ppm): 0%
Test C disease control rating ([4]; 200 ppm): 0%
Test I disease control rating [5]: 0%
Test E disease control rating ([6]; 200 ppm): 0%
Test F disease control rating [7]: 0%
Test G disease control rating ([8]; 200 ppm): 0%
Test A disease control rating [9]: 0%
Test J disease control rating ([10]; 200 ppm): 91%
Test D disease control rating [11]: 0%
Test B disease control rating ([12]; 200 ppm): 0%

Cc1ccc(-c2c(Cl)nc(-n3cccn3)c(=O)n2CC(C)C)c(C)c1 [compound 80]
Test H disease control rating ([1]; 200 ppm): 100%
Test K disease control rating ([2]; 200 ppm): 100%
Test L disease control rating ([3]; 200 ppm): 94%
Test C disease control rating ([4]; 40 ppm (*)): 0* %
Test I disease control rating [5]: 0%
Test E disease control rating ([6]; 200 ppm): 100%
Test F disease control rating [7]: 0%
Test G disease control rating ([8]; 200 ppm): 47%
Test A disease control rating [9]: 0%
Test J disease control rating ([10]; 200 ppm): 100%
Test D disease control rating [11]: 0%
Test B disease control rating ([12]; 200 ppm): 99%

CCC(C)Cn1c(-c2c(F)cccc2F)c(Cl)nc(-n2ccc(C#N)n2)c1=O (stereo not drawn) [compound 81]
Test H disease control rating ([1]; 40 ppm (*)): 0* %
Test K disease control rating ([2]; 40 ppm (*)): 68* %
Test L disease control rating ([3]; 40 ppm (*)): 0* %
Test C disease control rating ([4]; 200 ppm): 0%
Test I disease control rating [5]: 0%
Test E disease control rating ([6]; 40 ppm (*)): 93* %
Test F disease control rating [7]: 0%
Test G disease control rating ([8]; 40 ppm (*)): 31* %
Test A disease control rating [9]: 0%
Test J disease control rating ([10]; 40 ppm (*)): 52* %
Test D disease control rating [11]: 0%
Test B disease control rating ([12]; 40 ppm (*)): 0* %

CCC(C)Cn1c(-c2c(F)cccc2F)c(Cl)nc(-n2cccc2)c1=O (stereo not drawn) [compound 82]
Test H disease control rating ([1]; 40 ppm (*)): 73* %
Test K disease control rating ([2]; 40 ppm (*)): 68* %
Test L disease control rating ([3]; 40 ppm (*)): 0* %
Test C disease control rating ([4]; 200 ppm): 0%
Test I disease control rating [5]: 0%
Test E disease control rating ([6]; 40 ppm (*)): 0* %
Test F disease control rating [7]: 0%
Test G disease control rating ([8]; 40 ppm (*)): 0* %
Test A disease control rating [9]: 0%
Test J disease control rating ([10]; 40 ppm (*)): 5* %
Test D disease control rating [11]: 0%
Test B disease control rating ([12]; 40 ppm (*)): 0* %

COc1cc(OC)c(-c2c(Cl)nc(-n3cccn3)c(=O)n2CC(C)C)c(OC)c1 [compound 86]
Test H disease control rating ([1]; 200 ppm): 0%
Test K disease control rating ([2]; 200 ppm): 0%
Test L disease control rating ([3]; 200 ppm): 0%
Test C disease control rating ([4]; 200 ppm): 4%
Test I disease control rating [5]: 23%
Test E disease control rating ([6]; 200 ppm): 0%
Test F disease control rating [7]: 0%
Test G disease control rating ([8]; 200 ppm): 0%
Test A disease control rating [9]: 0%
Test J disease control rating ([10]; 200 ppm): 0%
Test D disease control rating [11]: 0%
Test B disease control rating ([12]; 200 ppm): 0%
